These results are taken from patent publication US9999222B2, “Herbicidal combination comprising azines” (BASF SE, priority 2014, dated 2018).

Molecules are shown by their SMILES.

Test in all cases: Greenhouse test, post-emergence treatment
Experiment [1] concerns AMARE. It is filed as in vivo, Amaranthus retroflexus. Particulars: scale 0 to 100. The source says: (§1) The culture containers used were plastic flowerpots containing loamy sand with approximately 3.0% of humus as the substrate. The seeds of the test plants were sown separately for each species.
(§2) For the post-emergence treatment, the test plants were first grown to a height of […], depending on the plant habit, and only then treated with the active ingredients which had been suspended or emulsified in water. For this purpose, the test plants were either sown directly and grown in the same containers, or they were first grown separately as seedlings and transplanted into the test containers a few days prior to treatment.
(§3) Depending on the species, the plants were kept at 10-25° C. or 20-35° C., respectively.
(§4) The test period extended over 2 to 4 weeks. During this time, the plants were tended, and their response to the individual treatments was evaluated.
(§5) Evaluation was carried out using a scale from 0 to 100. 100 means no emergence of the plants, or complete destruction of at least the aerial moieties, and 0 means no damage, or normal course of growth. A moderate herbicidal activity is given at values of at least 60, a good herbicidal activity is given at values of at least 70, and a very good herbicidal activity is given at values of at least 85.

Experiment [2] concerns POLCO. Type of experiment: in vivo, Polygonum convolvulus. Particulars: application rate 1.0 kg/ha, scale 0 to 100.
From the text: as §1, §2, §3, §4, §5

In experiment [3] the test system is ABUTH. Type of experiment: in vivo, Abutilon theophrasti. As to conditions: application rate 0.5 kg/ha, scale 0 to 100.
From the text: as §1, §2, §3, §4, §5

In experiment [4] the test system is ECHCG. It is filed as in vivo, Echinocloa crus-galli. Particulars: application rate 0.5 kg/ha, scale 0 to 100.
From the text: as §1, §2, §3, §4, §5

For the compound `Nc1nc(CC2CC2)nc(Nc2c(F)cc(F)cc2F)n1` [Example 4, 6-(cyclopropylmethyl)-N4-(2,4,6-trifluorophenyl)-1,3,5-triazine-2,4-diamine], the herbicidal activity result in experiment [1] (application rate 1.0 kg/ha) is “very good herbicidal activity (a very good herbicidal activity is given at values of at least 85)”; in experiment [2], “good herbicidal activity (a good herbicidal activity is given at values of at least 70)”.

`CC(c1nc(N)nc(Nc2c(F)c(F)cc(F)c2F)n1)C1CC1` (centres unmarked) [Example 5, 6-(1-cyclopropylethyl)-N4-(2,3,5,6-tetrafluorophenyl)-1,3,5-triazine-2,4-diamine]: the herbicidal activity result in experiment [3], in experiment [1] (application rate 0.5 kg/ha) and in experiment [4] was “very good herbicidal activity (a very good herbicidal activity is given at values of at least 85)” each time.
